The test system of the experiment is mice. Briefly: Neuropharmacological Assay (SmartCube): automated behavioral signature of compound-treated mice compared with a database of reference drug classes. Type of experiment: in vivo. The note with it: for minimal effective dose: Mus musculus, ip. The gist of the method:
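Probabilities of matching each neuropharmacological class (e.g. anxiolytic, antidepressant) come from algorithmic analysis of digitally recorded behaviour, reported for 3.0 mg/kg. Compounds were given intraperitoneally in a Pharmasolve/PEG/propylene glycol vehicle 15 min pre-test. Minimal effective dose is the lowest dose reaching 45% or more total activity.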

Where [1] appears, read: probability that activity matches this class of agents, 3.0 mg/kg i.p., 15 min before test.
The mark [2] stands for this setting: probability that activity matches this class of agents, 3.0 mg/kg i.p., 15 min before test, hydrochloride, 3 mg/kg.
Where [3] appears, read: SmartCube probability class, 3.0 mg/kg dose, i.p. 15 min before the behavioral test.
The mark [4] stands for this setting: SmartCube probability class, 3.0 mg/kg dose, i.p. 15 min before the behavioral test, formate salt, 3 mg/kg.
Setting [5] is: SmartCube class probability, 3.0 mg/kg i.p., 15 min before test.
[6] abbreviates: SmartCube class probability, 3.0 mg/kg i.p., 15 min before test, hydrochloride, 3 mg/kg.
Setting [7] is: minimal effective dose: dose having 45% or more total activity in SmartCube, i.p., if only one dose was tested, that dose is shown, read-out: MED.
[8] abbreviates: dose having 45% or more total activity in SmartCube, i.p., if only one dose was tested, that dose is shown, read-out: MED (minimal effective dose).
Where [9] appears, read: minimal effective dose: dose having 45% or more total activity in SmartCube, i.p., if only one dose tested, that dose is shown, read-out: MED.

Counter-ions that a name gives are not always drawn. Like-named read-outs stand apart in the source and are kept apart here.

This note sets out measurements from patent US20260274814A1, “THIENYL COMPOUNDS FOR THE TREATMENT OF A CENTRAL NERVOUS SYSTEM DISEASE OR DISORDER” (Coreterra Therapeutics, Inc., priority 2023, published 2026).

On to `CNC1CCc2scc(Cl)c2C1` (single isomer, unassigned) [Compound 132, 3-chloro-N-methyl-4,5,6,7-tetrahydrobenzothiophen-5-amine hydrochloride], for which the “MED (minimal effective dose)” value (dose having 45% or more total activity in SmartCube, i.p., if only one dose was tested, that dose is shown) is on record as 3 mpk. For the same molecule, under setting [1], the AG result is “ND (^ <4%)”, the AN result is listed as “ND (^ <4%)”, the AX result is recorded as “ND (^ <4%)” and the CE entry is “ND (^ <4%)”. Besides, under setting [1], the HL entry was “ND (^ <4%)” and the SH entry is recorded as “ND (^ <4%)”. For the same molecule, under setting [2], the AD entry is recorded as “ND (^ <4%)”, the AP result is on record as “+ (≥4%)”, the MS entry is “ND (^ <4%)” and the PS result is recorded as “+ (≥4%)”. In addition, the UK entry under setting [2] is listed as “++ (≥24%)”.

With `CNC1COc2sccc2C1` (single isomer, unassigned) [Compound 294, N-methyl-3,4-dihydro-2H-thieno[2,3-b]pyran-3-amine formate salt], under setting [3], the AD result was “ND (^ <4%)”, the AG entry was “ND (^ <4%)”, the AN entry is on record as “ND (^ <4%)” and the AX result is on record as “ND (^ <4%)”. Under setting [3], the CE result is on record as “ND (^ <4%)”, the HL entry was “ND (^ <4%)”, the MS entry is given as “ND (^ <4%)” and the PS entry is given as “ND (^ <4%)”. For the same molecule, under setting [3], the SH result is recorded as “ND (^ <4%)”. Further, under setting [4], the AP entry is recorded as “ND (^ <4%)” and the UK result is “+ (≥4%)”. Further, the MED (minimal effective dose: dose having 45% or more total activity in SmartCube, i.p., if only one dose was tested, that dose is shown, formate salt) is >3 mpk.

As to `CNC1CCc2c(Cl)csc2C1` (single isomer, unassigned) [Compound 199, 3-chloro-N-methyl-4,5,6,7-tetrahydrobenzothiophen-6-amine hydrochloride], under setting [5], the AD result is listed as “ND (^ <4%)”, the AG entry is listed as “ND (^ <4%)”, the AN result is recorded as “ND (^ <4%)” and the AX entry is on record as “ND (^ <4%)”. Further, under setting [5], the CE result was “ND (^ <4%)”, the MS entry was “ND (^ <4%)”, the PS entry is reported as “ND (^ <4%)” and the SH entry is listed as “ND (^ <4%)”. The UK result under setting [5] is on record as “ND (^ <4%)”. Moreover, under setting [6], the AP entry is “ND (^ <4%)” and the HL result was “+ (≥4%)”. Besides, the MED (minimal effective dose: dose having 45% or more total activity in SmartCube, i.p., if only one dose tested, that dose is shown) is on record as <3 mpk.

For `CNC1CCc2ccsc2CC1` (stereo not shown) [Compound 327, N-methyl-5,6,7,8-tetrahydro-4H-cyclohepta[b]thiophen-6-amine hydrochloride], the minimal effective dose under setting [7] is 3 mg/kg. Besides, under setting [3], the AD result was “ND (^ <4%)”, the AG result is reported as “ND (^ <4%)”, the AN result was “ND (^ <4%)” and the AP result is given as “ND (^ <4%)”. Under setting [3], the AX result was “++ (≥24%)”, the CE entry is “ND (^ <4%)”, the HL entry was “ND (^ <4%)” and the MS entry was “ND (^ <4%)”. Under setting [3], the PS result is recorded as “ND (^ <4%)”, the SH result is listed as “ND (^ <4%)” and the UK entry was “+++ (≥49%)”.

Take `CNC1CCc2c(Cl)csc2C1` (stereo not shown) [Compound 94, 3-chloro-N-methyl-4,5,6,7-tetrahydrobenzothiophen-6-amine hydrochloride]: the minimal effective dose under setting [8] is 3 mg/kg. Also, under setting [1], the AD entry was “ND (^ <4%)”, the AG result is reported as “ND (^ <4%)”, the AN entry was “ND (^ <4%)” and the AP result is given as “++++ (≥74%)”. Under setting [1], the AX result was “ND (^ <4%)”, the CE entry was “ND (^ <4%)”, the HL result is listed as “ND (^ <4%)” and the MS entry is “ND (^ <4%)”. Moreover, under setting [1], the PS entry is listed as “ND (^ <4%)”, the SH entry is “ND (^ <4%)” and the UK entry is on record as “ND (^ <4%)”.

Take `CNC1COc2sccc2C1` (stereo not shown) [Compound 234, N-methyl-3,4-dihydro-2H-thieno[2,3-b]pyran-3-amine hydrochloride]: the minimal effective dose under setting [9] came out at 1 mg/kg. Under setting [5], the AD result was “ND (^ <4%)”, the AG entry is “ND (^ <4%)”, the AN result was “ND (^ <4%)” and the AP result is “++++ (≥74%)”. Also, under setting [5], the AX entry is “+ (≥4%)”, the CE result is “ND (^ <4%)”, the HL result is listed as “ND (^ <4%)” and the MS entry is recorded as “ND (^ <4%)”. Further, under setting [5], the PS entry is “ND (^ <4%)”, the SH entry is listed as “ND (^ <4%)” and the UK result is on record as “ND (^ <4%)”.

`N#Cc1scc2c1CC(N)CC2` (single isomer, unassigned) [Compound 312, 6-amino-4,5,6,7-tetrahydro-2-benzothiophene-1-carbonitrile hydrochloride]: under setting [7], the minimal effective dose came to 3 mg/kg. Also, under setting [3], the AD result is on record as “ND (^ <4%)”, the AG result is on record as “ND (^ <4%)”, the AN entry is “ND (^ <4%)” and the AP result was “ND (^ <4%)”. Further, under setting [3], the AX entry was “ND (^ <4%)”, the CE entry is on record as “ND (^ <4%)”, the HL entry is “ND (^ <4%)” and the MS result was “ND (^ <4%)”. Besides, under setting [3], the PS result was “ND (^ <4%)” and the SH result is reported as “ND (^ <4%)”. Also, the UK entry (SmartCube probability class, 3.0 mg/kg dose, i.p. 15 min before the behavioral test, hydrochloride, 3 mg/kg) is given as “+++ (≥49%)”.

In the case of `N#Cc1csc2c1CC(N)CC2` (single isomer, unassigned) [Compound 176, 5-amino-4,5,6,7-tetrahydrobenzo[b]thiophene-3-carbonitrile hydrochloride], the minimal effective dose under setting [9] is > 3 mg/kg. In addition, under setting [5], the AD entry is given as “ND (^ <4%)”, the AG result was “ND (^ <4%)”, the AN result was “ND (^ <4%)” and the AP result was “ND (^ <4%)”. Further, under setting [5], the AX entry is recorded as “ND (^ <4%)”, the CE entry was “ND (^ <4%)”, the HL entry is given as “ND (^ <4%)” and the MS result is “ND (^ <4%)”. Under setting [5], the PS result is listed as “ND (^ <4%)” and the SH result is listed as “ND (^ <4%)”. Further, the UK result under setting [6] is reported as “ND (^ <4%)”.

In the case of `CNC1CCc2csc(C3CC3)c2C1` (single isomer, unassigned) [Compound 154, 3-cyclopropyl-N-methyl-4,5,6,7-tetrahydro-2-benzothiophen-5-amine hydrochloride], under setting [5], the AG result was “ND (^ <4%)”, the AN entry is reported as “ND (^ <4%)”, the AP result is “ND (^ <4%)” and the AX entry is given as “ND (^ <4%)”. Moreover, under setting [5], the HL entry is “ND (^ <4%)”, the PS entry is on record as “ND (^ <4%)” and the UK entry is “ND (^ <4%)”. In addition, under setting [6], the AD entry is “ND (^ <4%)”, the CE entry is “ND (^ <4%)”, the MS result is “ND (^ <4%)” and the SH result was “ND (^ <4%)”. For the same molecule, where the note is “minimal effective dose: dose having 45% or more total activity in SmartCube, i.p., if only one dose tested, that dose is shown, hydrochloride”, the MED is given as >1 mpk.

Regarding `CCc1csc2c1CC(NC)CC2` (single isomer, unassigned) [Compound 251, 3-ethyl-N-methyl-4,5,6,7-tetrahydrobenzothiophen-5-amine hydrochloride], the minimal effective dose under setting [9] is > 3 mg/kg. Besides, under setting [5], the AD result is given as “ND (^ <4%)”, the AG entry is “ND (^ <4%)”, the AN result was “ND (^ <4%)” and the AX result is “ND (^ <4%)”. Further, under setting [5], the HL entry is “ND (^ <4%)”, the MS entry was “ND (^ <4%)” and the SH entry is “ND (^ <4%)”. Moreover, under setting [6], the AP result is on record as “ND (^ <4%)” and the UK result is reported as “++ (≥24%)”.

For `CNC1CCc2scc(F)c2C1` (single isomer, unassigned) [Compound 137, 3-fluoro-N-methyl-4,5,6,7-tetrahydrobenzothiophen-5-amine hydrochloride], the minimal effective dose under setting [8] came to 1 mg/kg. Further, under setting [1], the AD result is recorded as “ND (^ <4%)”, the AG result is recorded as “ND (^ <4%)”, the AN entry is “ND (^ <4%)” and the CE result is “ND (^ <4%)”. Under setting [1], the HL entry was “ND (^ <4%)”, the MS result is “ND (^ <4%)”, the PS result is “ND (^ <4%)” and the SH entry is “ND (^ <4%)”. The UK result under setting [1] is “ND (^ <4%)”. Besides, under setting [2], the AP result is given as “++++ (≥74%)” and the AX entry is listed as “ND (^ <4%)”.

Regarding `CN(C)C1(C)CCc2cscc2C1` (single isomer, unassigned) [Compound 121, N,N, 5-trimethyl-6,7-dihydro-4H-2-benzothiophen-5-amine hydrochloride], under setting [8], the minimal effective dose is 3 mg/kg. For the same molecule, under setting [1], the AD result is reported as “ND (^ <4%)”, the AG entry is “ND (^ <4%)”, the AN entry is “ND (^ <4%)” and the AP entry is “+ (≥4%)”. Further, under setting [1], the AX entry is listed as “+ (≥4%)”, the CE result is listed as “ND (^ <4%)”, the HL entry is reported as “ND (^ <4%)” and the MS entry is “ND (^ <4%)”. Under setting [1], the PS entry is “ND (^ <4%)”, the SH result was “ND (^ <4%)” and the UK result is “+++ (≥49%)”.
